# According to ChEMBL document CHEMBL1146246, “Synthesis and structure-activity relationship of novel RXR antagonists: orally active anti-diabetic and anti-obesity agents” (Bioorg Med Chem Lett, 2007):
# Calls of active or inactive are those of the source. No cut-off for these calls is given here.
# Experiments:
# [1] = target: T1, Retinoic acid receptor RXR-alpha (Homo sapiens, UniProt P19793); assay: Inhibition of LG-100268-induced RXRalpha transactivation
# T1 sequence (P19793 whole entry): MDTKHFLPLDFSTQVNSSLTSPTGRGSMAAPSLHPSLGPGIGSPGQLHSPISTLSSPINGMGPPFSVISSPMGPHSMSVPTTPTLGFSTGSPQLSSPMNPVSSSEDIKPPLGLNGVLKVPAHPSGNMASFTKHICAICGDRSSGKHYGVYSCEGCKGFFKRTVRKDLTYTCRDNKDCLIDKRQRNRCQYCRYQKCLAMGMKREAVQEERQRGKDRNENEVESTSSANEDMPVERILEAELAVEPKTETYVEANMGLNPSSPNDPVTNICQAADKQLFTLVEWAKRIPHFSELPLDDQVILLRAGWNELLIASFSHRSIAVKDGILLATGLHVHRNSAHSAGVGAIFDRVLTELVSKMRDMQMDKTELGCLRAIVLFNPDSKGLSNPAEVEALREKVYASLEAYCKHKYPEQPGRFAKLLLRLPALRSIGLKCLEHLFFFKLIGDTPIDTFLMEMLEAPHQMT
# [2] = target: T1, Retinoic acid receptor RXR-alpha; assay: Inhibition of 9-cis-retinoic acid-induced RXRalpha transactivation
# Mus musculus [3] = species: Mus musculus; assay: Decrease in body weight gain in obese/diabetic KKAy mouse; format: functional, organism-based
# Mus musculus [4] = species: Mus musculus; assay: Decrease in plasma glucose concentration in obese/diabetic KKAy mouse; format: ADME, organism-based
# Mus musculus [5] = species: Mus musculus; assay: Decrease in plasma insulin concentration in obese/diabetic KKAy mouse; format: ADME, organism-based
Compound,IC50 [1] [nM],IC50 [2] [nM],Activity (Mus musculus [3]),Activity (Mus musculus [4]),Activity (Mus musculus [5])
CN1c2ccc(S(=O)(=O)Nc3ccc(OC(F)(F)F)cc3)cc2N=C(c2ccc(C(=O)O)cc2)c2cc3c(cc21)C(C)(C)CCC3(C)C,960,460,–,–,–
CN1c2ccc(S(=O)(=O)N(C)C)cc2N=C(c2ccc(C(=O)O)cc2)c2cc3c(cc21)C(C)(C)CCC3(C)C,2200,2000,–,–,–
CC(=O)c1ccc2c(c1)N=C(c1ccc(C(=O)O)c(F)c1)c1cc3c(cc1N2C)C(C)(C)CCC3(C)C,1700,1100,–,–,–
CN1c2ccc(S(=O)(=O)N3CCOCC3)cc2N=C(c2ccc(C(=O)O)cc2)c2cc3c(cc21)C(C)(C)CCC3(C)C,1000,450,–,–,–
CCCCNS(=O)(=O)c1ccc2c(c1)N=C(c1ccc(C(=O)O)cc1)c1cc3c(cc1N2C)C(C)(C)CCC3(C)C,410,190,–,–,–
CN1c2ccc(N3CCOCC3)cc2N=C(c2ccc(C(=O)O)cc2)c2cc3c(cc21)C(C)(C)CCC3(C)C,7000,3900,–,–,–
CNS(=O)(=O)c1ccc2c(c1)N=C(c1ccc(C(=O)O)cc1)c1cc3c(cc1N2C)C(C)(C)CCC3(C)C,1300,1300,–,–,–
COc1ccc(CS(=O)(=O)c2ccc3c(c2)N=C(c2ccc(C(=O)O)cc2)c2cc4c(cc2N3C)C(C)(C)CCC4(C)C)cc1,1400,780,–,–,–
CCCS(=O)(=O)c1ccc2c(c1)N=C(c1ccc(C(=O)O)cc1)c1cc3c(cc1N2C)C(C)(C)CCC3(C)C,920,450,–,–,–
CC(=O)c1ccc2c(c1)N=C(c1ccc(C(=O)O)cc1)c1cc3c(cc1N2C)C(C)(C)CCC3(C)C,1100,890,–,–,–
CCN1c2ccc(C#N)cc2N=C(c2ccc(C(=O)O)cc2F)c2cc3c(cc21)C(C)(C)CCC3(C)C,1100,530,–,–,–
CN1c2ccc(Sc3ccc(OC(F)(F)F)cc3)cc2N=C(c2ccc(C(=O)O)cc2)c2cc3c(cc21)C(C)(C)CCC3(C)C,1000,390,–,–,–
COc1ccc(CSc2ccc3c(c2)N=C(c2ccc(C(=O)O)cc2)c2cc4c(cc2N3C)C(C)(C)CCC4(C)C)cc1,4900,5500,–,–,–
COc1ccc(Sc2ccc3c(c2)N=C(c2ccc(C(=O)O)cc2)c2cc4c(cc2N3C)C(C)(C)CCC4(C)C)cc1,1600,720,–,–,–
CC(=O)c1ccc2c(c1)N=C(c1ccc(C(=O)O)cc1F)c1cc3c(cc1N2C)C(C)(C)CCC3(C)C,4600,–,–,–,–
CCN1c2ccc(C(C)=O)cc2N=C(c2ccc(C(=O)O)cc2)c2cc3c(cc21)C(C)(C)CCC3(C)C,970,790,–,–,–

Compound,IC50 [1] [nM],IC50 [2] [nM],Activity (Mus musculus [3]),Activity (Mus musculus [4]),Activity (Mus musculus [5])
CN1c2ccc(C#N)cc2N=C(c2ccc(C(=O)O)c(F)c2)c2cc3c(cc21)C(C)(C)CCC3(C)C,1200,520,–,–,–
CN1c2ccc(S(=O)(=O)c3ccc(OC(F)(F)F)cc3)cc2N=C(c2ccc(C(=O)O)cc2)c2cc3c(cc21)C(C)(C)CCC3(C)C,240,130,–,–,–
CN1c2ccc(S(=O)(=O)N3CCCC3)cc2N=C(c2ccc(C(=O)O)cc2)c2cc3c(cc21)C(C)(C)CCC3(C)C,1000,450,–,–,–
CN1c2ccc(S(C)(=O)=O)cc2N=C(c2ccc(C(=O)O)cc2)c2cc3c(cc21)C(C)(C)CCC3(C)C,1700,1400,–,–,–
COc1ccc(S(=O)(=O)c2ccc3c(c2)N=C(c2ccc(C(=O)O)cc2)c2cc4c(cc2N3C)C(C)(C)CCC4(C)C)cc1,360,170,–,–,–
CN1c2ccc(S(=O)(=O)Cc3ccc(Cl)cc3)cc2N=C(c2ccc(C(=O)O)cc2)c2cc3c(cc21)C(C)(C)CCC3(C)C,950,420,–,–,–
CN1c2ccc(C#N)cc2N=C(c2ccc(C(=O)O)cc2)c2cc3c(cc21)C(C)(C)CCC3(C)C,820,430,–,–,–
CN1CCN(S(=O)(=O)c2ccc3c(c2)N=C(c2ccc(C(=O)O)cc2)c2cc4c(cc2N3C)C(C)(C)CCC4(C)C)CC1,1900,1000,–,–,–
CCCN1c2ccc(C#N)cc2N=C(c2ccc(C(=O)O)cc2)c2cc3c(cc21)C(C)(C)CCC3(C)C,2100,2100,–,–,–
CSc1ccc2c(c1)N=C(c1ccc(C(=O)O)cc1)c1cc3c(cc1N2C)C(C)(C)CCC3(C)C,3000,2000,–,–,–
CCN1c2ccc(C(C)=O)cc2N=C(c2ccc(C(=O)O)cc2F)c2cc3c(cc21)C(C)(C)CCC3(C)C,3300,3000,–,–,–
CCN1c2ccc(C#N)cc2N=C(c2ccc(C(=O)O)cc2)c2cc3c(cc21)C(C)(C)CCC3(C)C,480,320,–,–,–
CN1CCN(c2ccc3c(c2)N=C(c2ccc(C(=O)O)cc2)c2cc4c(cc2N3C)C(C)(C)CCC4(C)C)CC1,11000,–,–,–,–
CCN1c2ccc(C#N)cc2N=C(c2ccc(C(=O)O)c(F)c2)c2cc3c(cc21)C(C)(C)CCC3(C)C,770,500,Active,Active,Active
CN1c2ccc(SCc3ccc(Cl)cc3)cc2N=C(c2ccc(C(=O)O)cc2)c2cc3c(cc21)C(C)(C)CCC3(C)C,1600,670,–,–,–
